According to PubChem BioAssay (NCI):
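Grown in 96-well plates, cells were treated for 48 hours with each compound at five concentrations. Insufficient inhibition: endpoint recorded as highest concentration tested. The concentration for full growth arrest is given as TGI.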

Legend:
Assay in all cases: NCI tumour cell line growth inhibition, 48 h
786-0 renal = test system: 786-0 renal
SN12C renal = test system: SN12C renal
MDA-MB-435 = test system: MDA-MB-435
CCRF-CEM leukemia = test system: CCRF-CEM leukemia
MDA-MB-231 breast = test system: MDA-MB-231 breast
OVCAR-3 ovarian = test system: OVCAR-3 ovarian
SR leukemia = test system: SR leukemia
HOP-92 NSCLC = test system: HOP-92 NSCLC
MALME-3M melanoma = test system: MALME-3M melanoma
HS 578T breast = test system: HS 578T breast
SF-268 CNS = test system: SF-268 CNS
NCI-H23 lung = test system: NCI-H23 lung
SK-MEL-2 melanoma = test system: SK-MEL-2 melanoma
MCF7 breast = test system: MCF7 breast
HCT-116 colon = test system: HCT-116 colon
HOP-62 NSCLC = test system: HOP-62 NSCLC
SF-295 CNS = test system: SF-295 CNS
M14 melanoma = test system: M14 melanoma
T-47D breast = test system: T-47D breast
RPMI-8226 leukemia = test system: RPMI-8226 leukemia
A498 renal = test system: A498 renal
EKVX NSCLC = test system: EKVX NSCLC
PC-3 prostate = test system: PC-3 prostate
SNB-19 CNS = test system: SNB-19 CNS
NCI-H522 lung = test system: NCI-H522 lung
OVCAR-4 ovarian = test system: OVCAR-4 ovarian
HCT-15 colon = test system: HCT-15 colon
NCI-H460 lung = test system: NCI-H460 lung
UACC-257 melanoma = test system: UACC-257 melanoma
RXF 393 renal = test system: RXF 393 renal
K-562 leukemia = test system: K-562 leukemia
UACC-62 melanoma = test system: UACC-62 melanoma
UO-31 renal = test system: UO-31 renal
HL-60(TB) leukemia = test system: HL-60(TB) leukemia
BT-549 breast = test system: BT-549 breast
HT29 colon = test system: HT29 colon
DU-145 prostate = test system: DU-145 prostate
OVCAR-8 ovarian = test system: OVCAR-8 ovarian
NCI/ADR-RES ovarian = test system: NCI/ADR-RES ovarian
SNB-75 CNS = test system: SNB-75 CNS
A549 NSCLC = test system: A549 NSCLC
MDA-N = test system: MDA-N
OVCAR-5 ovarian = test system: OVCAR-5 ovarian
IGROV1 ovarian = test system: IGROV1 ovarian
MOLT-4 leukemia = test system: MOLT-4 leukemia
TK-10 renal = test system: TK-10 renal
ACHN renal = test system: ACHN renal
HCC-2998 colon = test system: HCC-2998 colon
U251 CNS = test system: U251 CNS
LOX IMVI melanoma = test system: LOX IMVI melanoma
SW-620 colon = test system: SW-620 colon
CAKI-1 renal = test system: CAKI-1 renal
KM12 colon = test system: KM12 colon
SK-MEL-28 melanoma = test system: SK-MEL-28 melanoma
COLO 205 colon = test system: COLO 205 colon
NCI-H226 lung = test system: NCI-H226 lung
SK-OV-3 ovarian = test system: SK-OV-3 ovarian
SK-MEL-5 melanoma = test system: SK-MEL-5 melanoma

SMILES: O=C1CSC(c2c(O)ccc3ccccc23)N1n1c(=S)[nH]nc(/C=C/c2c(O)ccc3ccccc23)c1=O (centres undefined)
- TGI (786-0 renal): 14.5 µM
- TGI (SN12C renal): 14.2 µM
- TGI (MDA-MB-435): 14.9 µM
- TGI (CCRF-CEM leukemia): 3.04 µM
- TGI (MDA-MB-231 breast): 20.7 µM
- TGI (OVCAR-3 ovarian): 17.7 µM
- TGI (SR leukemia): 10.9 µM
- TGI (HOP-92 NSCLC): 65.3 µM
- TGI (MALME-3M melanoma): 16.8 µM
- TGI (HS 578T breast): > 100 µM
- TGI (SF-268 CNS): 40.3 µM
- TGI (NCI-H23 lung): 23 µM
- TGI (SK-MEL-2 melanoma): 15.1 µM
- TGI (MCF7 breast): 18.9 µM
- TGI (HCT-116 colon): 16.6 µM
- TGI (HOP-62 NSCLC): 22 µM
- TGI (SF-295 CNS): 37.2 µM
- TGI (M14 melanoma): 3.32 µM
- TGI (T-47D breast): 15.1 µM
- TGI (RPMI-8226 leukemia): 17.4 µM
- TGI (A498 renal): 18.4 µM
- TGI (EKVX NSCLC): 51.3 µM
- TGI (PC-3 prostate): 22.5 µM
- TGI (SNB-19 CNS): 76.6 µM
- TGI (NCI-H522 lung): 21 µM
- TGI (OVCAR-4 ovarian): 40.3 µM
- TGI (HCT-15 colon): 23.2 µM
- TGI (NCI-H460 lung): 11.5 µM
- TGI (UACC-257 melanoma): 14.3 µM
- TGI (RXF 393 renal): 13.7 µM
- TGI (K-562 leukemia): 19.3 µM
- TGI (UACC-62 melanoma): 10.1 µM
- TGI (UO-31 renal): 15.1 µM
- TGI (HL-60(TB) leukemia): 0.874 µM
- TGI (BT-549 breast): 23.5 µM
- TGI (HT29 colon): 36.6 µM
- TGI (DU-145 prostate): 15.3 µM
- TGI (OVCAR-8 ovarian): 21.4 µM
- TGI (NCI/ADR-RES ovarian): 14.7 µM
- TGI (SNB-75 CNS): 11.4 µM
- TGI (A549 NSCLC): 21.8 µM
- TGI (MDA-N): > 100 µM
- TGI (OVCAR-5 ovarian): 38.1 µM
- TGI (IGROV1 ovarian): 26.7 µM
- TGI (MOLT-4 leukemia): > 100 µM
- TGI (TK-10 renal): 28.2 µM
- TGI (ACHN renal): 11.2 µM
- TGI (HCC-2998 colon): 22 µM
- TGI (U251 CNS): 16.4 µM
- TGI (LOX IMVI melanoma): 17.5 µM
- TGI (SW-620 colon): 52.1 µM
- TGI (CAKI-1 renal): 11.4 µM

SMILES: CC(C)=CCC[C@@H](C)C1=C(O)C(Nc2ccccc2F)=C(C)C(=O)C1=O
- TGI (786-0 renal): > 100 µM
- TGI (SN12C renal): > 100 µM
- TGI (MDA-MB-435): > 100 µM
- TGI (KM12 colon): > 100 µM
- TGI (CCRF-CEM leukemia): 5.86 µM
- TGI (SK-MEL-28 melanoma): > 100 µM
- TGI (MDA-MB-231 breast): > 100 µM
- TGI (OVCAR-3 ovarian): > 30.4 µM
- TGI (SR leukemia): > 100 µM
- TGI (HOP-92 NSCLC): > 65.3 µM
- TGI (MALME-3M melanoma): 41.1 µM
- TGI (HS 578T breast): 54.8 µM
- TGI (SF-268 CNS): > 54 µM
- TGI (NCI-H23 lung): > 56.8 µM
- TGI (SK-MEL-2 melanoma): 68.3 µM
- TGI (MCF7 breast): > 90 µM
- TGI (HCT-116 colon): 47.6 µM
- TGI (HOP-62 NSCLC): > 55.7 µM
- TGI (SF-295 CNS): 30.4 µM
- TGI (M14 melanoma): > 57.6 µM
- TGI (T-47D breast): 57.7 µM
- TGI (RPMI-8226 leukemia): > 89.1 µM
- TGI (A498 renal): 67.2 µM
- TGI (EKVX NSCLC): > 100 µM
- TGI (PC-3 prostate): > 100 µM
- TGI (COLO 205 colon): > 68.9 µM
- TGI (SNB-19 CNS): > 100 µM
- TGI (OVCAR-4 ovarian): > 100 µM
- TGI (HCT-15 colon): > 70.2 µM
- TGI (NCI-H460 lung): > 100 µM
- TGI (NCI-H226 lung): > 78.7 µM
- TGI (UACC-257 melanoma): > 100 µM
- TGI (RXF 393 renal): > 57.1 µM
- TGI (K-562 leukemia): > 100 µM
- TGI (UACC-62 melanoma): > 79.3 µM
- TGI (UO-31 renal): 47.7 µM
- TGI (HL-60(TB) leukemia): 5.61 µM
- TGI (BT-549 breast): > 79.7 µM
- TGI (HT29 colon): > 100 µM
- TGI (DU-145 prostate): > 67.8 µM
- TGI (OVCAR-8 ovarian): > 100 µM
- TGI (NCI/ADR-RES ovarian): 23 µM
- TGI (SNB-75 CNS): > 78.8 µM
- TGI (A549 NSCLC): > 77.5 µM
- TGI (SK-OV-3 ovarian): > 100 µM
- TGI (MDA-N): > 100 µM
- TGI (OVCAR-5 ovarian): > 100 µM
- TGI (IGROV1 ovarian): > 69.5 µM
- TGI (MOLT-4 leukemia): > 100 µM
- TGI (TK-10 renal): > 100 µM
- TGI (ACHN renal): 49.5 µM
- TGI (HCC-2998 colon): > 100 µM
- TGI (SK-MEL-5 melanoma): 42.3 µM
- TGI (U251 CNS): > 100 µM
- TGI (LOX IMVI melanoma): > 100 µM
- TGI (SW-620 colon): > 100 µM
- TGI (CAKI-1 renal): 48.2 µM
